Assays:
[1] = biological target: T1, human TRPM8 (Homo sapiens, UniProt Q7Z2W7); experiment: TRPM8 calcium assay (Fluo-8, FLIPR) in transfected CHO cells; format: cell-based; conditions: x Menthol
T1 construct: host or cells: CHO cells, stably transfected
Procedure: Compounds were tested on Chinese Hamster Ovary (CHO) cells stably transfected with human TRPM8 cDNAs using a Fluo-8 calcium kit and a Fluorescence Imaging Plate Reader ([…]™) instrument. […] Solutions were prepared by diluting stock solutions in a HEPES-buffered physiological saline (HBPS) solution. Test compound and control formulations were loaded in polypropylene or glass-lined 384-well plates, and placed into the FLIPR instrument (Molecular Devices Corporation, Union City, CA, USA). Each was tested at 8 concentrations with n = 4 replicates per determination. […] For […]™ assay, cells were plated in 384-well black wall, flat clear-bottom microtiter plates (Type: BD Biocoat Poly-D-Lysine Multiwell Cell Culture Plate) at approximately 30,000 cells per well. Cells were incubated at 37 °C overnight to reach a near confluent monolayer appropriate for use in a fluorescence assay. The test procedure was to remove the growth media and to add 40 μL of HBPS containing Fluo-8 for 30 min at 37 °C. 10 μL of test compound, vehicle, or control solutions in HBPS were added to each well and read for 4 min. Concentration-response data were analyzed via the FLIPR Control software that is supplied with the FLIPR System (MDS-AT) and fitted to a Hill equation.

[2] = biological target: T2, mouse TRPV1 (Mus musculus, UniProt Q704Y3); experiment: TRPV1 calcium imaging (Fura-2) in transfected KNRK cells; format: cell-based; conditions: 10 μM
T2 construct: expressed in transfected cells; host or cells: KNRK cells (rat kidney), transiently transfected
T2 sequence (Q704Y3 whole entry): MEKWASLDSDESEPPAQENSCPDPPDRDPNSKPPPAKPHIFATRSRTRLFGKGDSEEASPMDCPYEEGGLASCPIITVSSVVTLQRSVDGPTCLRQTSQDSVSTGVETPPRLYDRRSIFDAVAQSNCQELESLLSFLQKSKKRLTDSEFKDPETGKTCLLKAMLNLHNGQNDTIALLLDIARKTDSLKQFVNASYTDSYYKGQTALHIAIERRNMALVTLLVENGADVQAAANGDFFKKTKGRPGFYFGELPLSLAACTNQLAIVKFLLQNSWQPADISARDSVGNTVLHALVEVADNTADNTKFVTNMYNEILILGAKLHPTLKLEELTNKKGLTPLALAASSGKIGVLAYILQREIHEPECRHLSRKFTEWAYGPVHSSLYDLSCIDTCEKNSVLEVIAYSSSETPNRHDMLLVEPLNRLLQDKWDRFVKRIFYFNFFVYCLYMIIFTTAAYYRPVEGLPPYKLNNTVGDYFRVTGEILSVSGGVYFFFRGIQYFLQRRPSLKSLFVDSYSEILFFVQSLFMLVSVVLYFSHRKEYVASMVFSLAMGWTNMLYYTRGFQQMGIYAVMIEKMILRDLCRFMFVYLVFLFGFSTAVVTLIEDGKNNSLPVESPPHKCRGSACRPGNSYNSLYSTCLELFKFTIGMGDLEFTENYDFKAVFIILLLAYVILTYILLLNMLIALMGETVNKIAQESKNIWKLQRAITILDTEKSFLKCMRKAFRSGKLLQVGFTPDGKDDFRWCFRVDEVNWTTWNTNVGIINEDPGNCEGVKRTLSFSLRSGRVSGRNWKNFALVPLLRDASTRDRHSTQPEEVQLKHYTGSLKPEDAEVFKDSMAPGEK
Procedure: (§1) To further examine the specificity of C3, tests were conducted on TRPV1 channels and TRPA1 channels expressed in Kirsten murine sarcoma virus transformed rat kidney (KNRK) cells. KNRK cells were cultured as a monolayer and maintained in Dulbeccos’s Modified Eagles’s Medium (Life Technologies), supplemented with 10% fetal bovine serum (Life Technologies), 100 units/mL penicillin and 100 μg/mL streptomycin, in an incubator of 5% CO2 at 37 °C. After suspension, the cells were coated on cover slips for 12 h, then transiently transfected with cDNA (pc3.1 DNA) for TRPV1 or TRPA1 with Lipofectamine 2000 (Invitrogen) for 24 h, and loaded with Fura-2 AM™ (Molecular Probes) for 40 min at 37 °C. After washing and recovery, KNRK cells were imaged at 340 and 380 nm excitation to detect free calcium influx. An increase of 50% of the 340/380 ratio was considered as the response threshold which were measured under masked conditions for plasmids. Compounds were applied to the bath and calcium response was acquired by an inverted Nikon fluorescence microscope with a CoolSnap HQ2 CCD camera (Photometrics, Tucson, AZ). Data were quantified offline with the Nikon-NIS program.

[3] = biological target: T3, human TRPA1 (Homo sapiens, UniProt O75762); experiment: TRPA1 calcium imaging (Fura-2) in transfected KNRK cells; format: cell-based; conditions: 10 μM
T3 construct: expressed in transfected cells; host or cells: KNRK cells (rat kidney), transiently transfected
T3 sequence (O75762 whole entry): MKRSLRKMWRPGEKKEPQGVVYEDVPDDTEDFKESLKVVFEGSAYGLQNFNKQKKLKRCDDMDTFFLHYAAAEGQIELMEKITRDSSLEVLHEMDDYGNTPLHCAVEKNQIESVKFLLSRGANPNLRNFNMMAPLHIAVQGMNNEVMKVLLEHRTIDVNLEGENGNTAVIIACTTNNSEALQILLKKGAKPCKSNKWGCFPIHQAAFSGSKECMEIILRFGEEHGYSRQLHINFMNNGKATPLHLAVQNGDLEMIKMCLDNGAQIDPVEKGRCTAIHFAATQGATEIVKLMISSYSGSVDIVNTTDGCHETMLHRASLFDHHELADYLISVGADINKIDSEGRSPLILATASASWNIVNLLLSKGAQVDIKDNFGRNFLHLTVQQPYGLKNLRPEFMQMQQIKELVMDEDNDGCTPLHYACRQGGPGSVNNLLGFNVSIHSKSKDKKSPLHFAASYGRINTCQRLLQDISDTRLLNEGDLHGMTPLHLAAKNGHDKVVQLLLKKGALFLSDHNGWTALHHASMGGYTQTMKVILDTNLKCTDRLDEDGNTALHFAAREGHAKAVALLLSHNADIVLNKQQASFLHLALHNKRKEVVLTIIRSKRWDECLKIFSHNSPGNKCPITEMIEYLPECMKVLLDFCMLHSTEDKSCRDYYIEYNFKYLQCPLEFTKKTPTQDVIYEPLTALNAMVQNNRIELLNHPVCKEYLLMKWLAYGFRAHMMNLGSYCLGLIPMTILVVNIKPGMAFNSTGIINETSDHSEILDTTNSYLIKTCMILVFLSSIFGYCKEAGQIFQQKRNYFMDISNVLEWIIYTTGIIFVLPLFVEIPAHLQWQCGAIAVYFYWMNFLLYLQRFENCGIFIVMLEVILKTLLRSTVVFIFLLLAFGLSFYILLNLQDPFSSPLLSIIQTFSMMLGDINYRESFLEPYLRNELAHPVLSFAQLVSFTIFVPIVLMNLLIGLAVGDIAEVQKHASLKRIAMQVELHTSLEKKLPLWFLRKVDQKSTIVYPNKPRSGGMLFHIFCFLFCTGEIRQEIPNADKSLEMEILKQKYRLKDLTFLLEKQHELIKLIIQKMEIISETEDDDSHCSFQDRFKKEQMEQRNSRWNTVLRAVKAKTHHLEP
Procedure: as §1

[4] = system: TRPM8-sensory neurons; experiment: Calcium imaging of primary sensory neurons from Trpm8 EGFP mice; format: cell-based, mouse; conditions: C3 10 μM
Procedure: Calcium imaging was used to test the C3 selectivity on TRPM8-sensory neurons. Trpm8 ^+/EGFPmice were gifted by Dr. Yu-Qing Cao, Pain Center of Washington University in Saint Louis, School of Medicine, Missouri. Trigeminal ganglions and dorsal root ganglions from 4 to 5 weeks old mice were collected after CO2 euthanasia and digested for 30–40 min before plated on cover slips (8 mm), which were coated with poly-D-lysine for 40 min before use. Cover slips were gently washed with culture media to remove myelin after incubating for 35–40 min. Calcium imaging was done after incubation overnight at 37 °C, 5% CO2. Neurons were loaded with Fura-2 AM™ (Molecular Probes) for 30 min at room temperature. After washing and recovery, neurons were imaged at 340 and 380 nm excitation to detect free calcium influx. An increase of 50% of the 340/380 ratio was considered as the response threshold which were measured under blinded conditions for genotypes. Compounds were applied to the bath and calcium response was acquired by an inverted Nikon fluorescence microscope with a CoolSnap HQ2 CCD camera (Photometrics, Tucson, AZ). Data was quantified offline with the Nikon-NIS program.

[5] = system: rats; experiment: Shaking activity (wet dog shakes) after intravenous, perioral and topical administration; format: in vivo, rat
Procedure: Male rats weighing 220–260 g were anesthetized with sodium pentobarbital, 55 mg/kg intraperitoneal, and after the loss of the righting reflex, animals were placed on a table and body temperature was recorded. The femoral vein was cannulated with polyethylene-20 tubing connected to a 1 mL syringe. For the intravenous and perioral routes, 0.1 mL of solution was given per 100 g body weight at a dose of 2 mg/kg or 20 mg/kg, respectively. For topical administration, the abdominal skin was shaved and 20 μL of the pure Dapa was applied with a micropipette on a ~ 1 cm diameter circle of skin, enclosed with a ring of cream (Baby cream “NevskayakosmetikaDetskyi” NevskayaKosmetika Inc., Saint-Petersburg 192,029). Animals were observed and shaking frequency counted for 15, 40 min and 1 h after intravenous, perioral, and topical applications, respectively. There were n = 3 to 6 rats per test substance. For the intravenous route, two trials were conducted in the same animal with a 10 to 15 min interval between doses. The shaking frequency shown in the graphs is for the second trial. Shaking behavior are rapid alternating contractions of the supination and pronation muscles about the spinal axis, and can be readily observed in the readily observed in the unanesthetized or anesthetized state and counted (Additional file 2: Movie S1). The pattern of response after intravenous, perioral, and topical delivery provides information on the ability of the molecule to cross membrane barriers. Experiments on rats were ended by euthanasia with intraperitoneal injection of sodium pentobarbital 150 mg/kg.
Supplementary file 12886_2017_495_MOESM2_ESM.mp4: Additional file 2: Movie S1. Shaking response to a 1-diisopropylphosphorylnonane. Video recording 20 to 40 min period after oral dosing with C3 at 50 mg/kg. C3 was dissolved in 5% ethanol-95% R-1,2-propanediol. The total observation period was 120 min. […] (MP4 3699 kb)

[6] = system: volunteers; experiment: C3 eye drop instilled in volunteers, sensation scores; format: in vivo, human
Procedure: Eye drops represent ~90% of formulations used for treatment of anterior eye disorders. […] Subjects were asked to rate discomfort, blurring, and coolness sensations, on a scale of 0 (no effect) to 5 (intense effect) at 5, 10, and 15 min after instillation. […] Cooling sensation scores were significant at 5 min (2.6 vs 0.2), but there were not much cooling at 10 (0.8 vs 0.2) or 15 min (0.2 vs 0.2). It appeared as if eye drops are a relatively inefficient method of C3 delivery because the drop splashes in a confined space and the time for the active ingredient to be retained on target receptors is short. Furthermore, the initial period of discomfort is not desirable. To determine if there were other TRPM8 targets on the orbit, we examined the mouse eye with a selective TRPM8-GFP reporter line.

T1 sequence (Q7Z2W7 whole entry): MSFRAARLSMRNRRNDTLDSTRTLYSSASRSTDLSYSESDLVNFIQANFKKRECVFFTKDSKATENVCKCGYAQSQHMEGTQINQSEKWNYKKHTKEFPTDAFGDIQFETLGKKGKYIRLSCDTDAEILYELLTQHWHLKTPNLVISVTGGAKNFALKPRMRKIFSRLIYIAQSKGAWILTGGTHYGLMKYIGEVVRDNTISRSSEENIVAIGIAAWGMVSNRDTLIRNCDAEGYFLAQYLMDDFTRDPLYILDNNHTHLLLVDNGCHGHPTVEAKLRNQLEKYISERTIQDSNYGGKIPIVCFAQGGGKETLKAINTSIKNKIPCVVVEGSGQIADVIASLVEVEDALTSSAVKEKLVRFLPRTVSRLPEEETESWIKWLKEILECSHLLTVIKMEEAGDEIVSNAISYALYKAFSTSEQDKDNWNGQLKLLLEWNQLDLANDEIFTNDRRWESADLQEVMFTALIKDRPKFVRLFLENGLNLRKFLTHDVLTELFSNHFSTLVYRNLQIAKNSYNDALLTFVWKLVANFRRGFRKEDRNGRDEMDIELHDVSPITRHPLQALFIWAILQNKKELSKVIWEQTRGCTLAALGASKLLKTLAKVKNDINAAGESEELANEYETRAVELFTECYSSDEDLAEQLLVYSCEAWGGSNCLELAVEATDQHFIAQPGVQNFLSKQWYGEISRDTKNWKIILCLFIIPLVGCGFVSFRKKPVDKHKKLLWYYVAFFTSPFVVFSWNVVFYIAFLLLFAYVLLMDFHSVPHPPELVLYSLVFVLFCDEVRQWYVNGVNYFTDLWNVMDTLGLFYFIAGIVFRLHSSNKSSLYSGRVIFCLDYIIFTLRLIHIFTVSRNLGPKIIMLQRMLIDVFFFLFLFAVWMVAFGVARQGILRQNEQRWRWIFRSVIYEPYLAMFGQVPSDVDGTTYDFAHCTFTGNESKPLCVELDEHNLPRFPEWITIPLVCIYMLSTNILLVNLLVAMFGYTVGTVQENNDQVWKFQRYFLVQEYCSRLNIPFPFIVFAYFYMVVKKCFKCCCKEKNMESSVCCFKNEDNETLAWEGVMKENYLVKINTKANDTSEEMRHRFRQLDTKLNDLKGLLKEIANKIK

## CCCCCCCCCP(=O)(C(C)C)C(C)C [C3, 1-diisopropylphosphorylnonane]
[1]
  relative potency to l-menthol (menthol = 1): 4.0
[2]
  activation of TRPV1 (calcium response): inactive
[3]
  activation of TRPA1 (calcium response): inactive
[4]
  calcium entry in TRPM8 EGFP/+ sensory neurons: activates calcium entry
[5]; intravenous 2 mg/kg, anesthetized rats
  Shaking [15 min]: active
[5]; oral 20 mg/kg, anesthetized and unanesthetized state
  body shakes after oral dosing: no body shakes
[5]; oral 50 mg/kg in 5% ethanol-95% R-1,2-propanediol, observation 120 min
  total number of shaking in the most active rat: 56 shakes
[5]; perioral 20 mg/kg, pentobarbital-anesthetized rats
  Shaking [40 min]: not active
[6]; 0.1 mg/mL eye drop, 5, 10 and 15 min
  blurring: did not cause significant blurring
[6]; 0.1 mg/mL eye drop, 5 min
  Cooling sensation score (0-5): 2.6
[6]; 0.1 mg/mL eye drop, 10 min
  Cooling sensation score (0-5): 0.8
[6]; 0.1 mg/mL eye drop, 15 min
  Cooling sensation score (0-5): 0.2
[6]; 0.1 mg/mL eye drop, volume printed as 70 μL
  duration of cooling after eye drop: ≤ 10 min
[6]; 0.1 mg/mL, 50 μL eye drop, 10 or 15 min
  discomfort: not at 10 or 15 min
[6]; 0.1 mg/mL, 50 μL eye drop, 5 min, n = 5
  discomfort score (0-5): 1.6
